Like-named read-outs stand apart in the source and are kept apart here.
Legend:
Format in all cases: cell-based
[1] = system: RPEMYC^H2B-GFP cells; assay: Phenotypic screening assay (mitotic arrest, polyploidy); details: 1 nM to 30 μM; for IC50: read-out: Proliferative arrest (>50%)
Experimental: (§1) We have previously developed a mechanism-informed phenotypic screening assay to identify novel antimitotic agents. Equipped with a prior understanding of the versatile functions of the chromosomal passenger protein (CPP) complex in orchestrating karyokinesis and cytokinesis, the screening assay is to score for phenotypes typically seen when the CPP complex is disabled. Specifically, the parameters for a positive hit are a temporary elevation of mitotic index (MI) at 24 hours of drug treatment and an accumulation of polyploid cells at 48 hours of drug treatment, indicative of mitotic arrest and cytokinetic failure respectively. These parameters exclude compounds that elicit only a prolonged arrest of cells in mitosis, a phenotype typically provoked by spindle toxins. The screening procedure is briefly summarized here. RPEMYC^H2B-GFP cells engineered to express a Histone 2B-EGFP fusion protein were passaged as batches of 96-well plates, 18-24 hours before exposure to the chemical compounds of the present disclosure at concentrations from 1 nM to 30 μM. At 24, 48 or 72 hours after initiation of treatment, cells were analyzed for either an arrest in mitosis or a change in DNA content by GE IN-Cell Analyzer 2000. As set forth in Table 2 below, a value of greater than or equal to 1 nM and less than or equal to 1.0 μM is marked “A”; a value greater than 1.00 μM and less than or equal to 10.0 μM is marked “B”; a value greater than 10.0 μM and less than or equal to 30.0 μM is marked “C”; and a value greater than 30.0 μM is marked “D.”

[2] = system: HCT116; assay: MECP in cancer cell line; details: Homo sapiens, HCT-116
Experimental: (§2) Six lung cancer cell lines (NCI-H23, NCI-H460, NCI-H596, NCI-H2170, Calu-6 and A549), two colon cancer cell lines (HCT116 and SW460), one breast cancer cell line MDA-MB-231, one gastric cancer cell line NCI-N87, one prostate cancer cell line DU145, one cervical cancer cell line Hela, and one glioblastoma cell line T98G were obtained from ATCC. The T2 HCC cell line was derived from a mouse liver cancer model initiated by a transgene of MYC. All cell lines were cultured in DMEM (Gibco, Cleveland, TN, USA) supplemented with 5% fetal bovine serum (Gibco), penicillin (100 U/mL)—streptomycin (100 μg/mL) (Gibco, Cat. No. 15140-122), 2 mM L-glutamine (Gibco, 200 mM solution, Cat. No. 25030081), and 1 mM sodium pyruvate (Gibco, 100 mM solution, Cat. No. 11360070) at 37° C. in a humidified incubator that was maintained at 5% CO2.
as §1

[3] = system: A549; assay: MECP in cancer cell line; details: Homo sapiens
Experimental: as §2, §1

[4] = system: SW480; assay: MECP in cancer cell line; details: Homo sapiens
Experimental: as §2, §1

[5] = system: T2 HCC; assay: MECP in cancer cell line; details: Mus musculus
Experimental: as §2, §1

[6] = system: MDA-MB-231; assay: MECP in cancer cell line; details: Homo sapiens
Experimental: as §2, §1

[7] = system: Hela; assay: MECP in cancer cell line; details: Homo sapiens
Experimental: as §2, §1

[8] = system: HCT116; assay: MTT assay of cellular proliferation; details: Homo sapiens, HCT-116, 50% inhibition of cellular proliferation
Experimental: as §2
(§3) The MTT assay measures cellular metabolic activity as a proxy for cell viability and involves the conversion of the water-soluble yellow dye MTT [3-(4,5-dimethylthiazol-2-yl)-2,5-diphenyltetrazolium bromide] into an insoluble purple formazan by the action of mitochondrial reductase. Formazan is then solubilized and its concentration is determined by measuring the optical density (OD) value at a wavelength of 570 nm. The value is in proportional to the number of live cells with excellent linearity up to ˜10^6 cells per well. The MTT assay was used to determine the EC50 value, the concentration of a compound that leads to 50% inhibition of cellular proliferation. Briefly, cells were split when growing to the mid-Log phase. Cells in 100 μL of culture medium were seeded into each well of 96-well microplates and cultivated for 15-24 hours to reach a confluence of 20-30% and were then exposed to drugs at concentrations ranging from 1 nM to 30 μM. At the endpoint, 20 μL of a MTT stock solution in DMSO (5 mg/mL) was added to each well that contains 100 μL of DMEM. The microplates were left in the cell culture incubator for 3-4 h before subjected to solubilization and determination of formazan at A570 in a microplate reader (BioTek ELX808iu). […] Therefore, these compounds might hold a broad utility in the treatment of a large variety of human malignancies.

[9] = system: A549; assay: MTT assay of cellular proliferation; details: Homo sapiens, 50% inhibition of cellular proliferation
Experimental: as §2, §3

[10] = system: NCI-H23; assay: MTT assay of cellular proliferation; details: Homo sapiens, 50% inhibition of cellular proliferation
Experimental: as §2, §3

[11] = system: NCI-N87; assay: MTT assay of cellular proliferation; details: Homo sapiens, 50% inhibition of cellular proliferation
Experimental: as §2, §3

[12] = system: SW480; assay: MTT assay of cellular proliferation; details: Homo sapiens, 50% inhibition of cellular proliferation
Experimental: as §2, §3

[13] = system: T2 HCC; assay: MTT assay of cellular proliferation; details: Mus musculus, 50% inhibition of cellular proliferation
Experimental: as §2, §3

[14] = system: MDA-MB-231; assay: MTT assay of cellular proliferation; details: Homo sapiens; MDA-MB-231, MTT, 50% inhibition of cellular proliferation
Experimental: as §2, §3

[15] = system: Hela; assay: MTT assay of cellular proliferation; details: Homo sapiens, 50% inhibition of cellular proliferation
Experimental: as §2, §3

[16] = system: NCI-H23; assay: MECP in cancer cell line; details: Homo sapiens
Experimental: as §2, with “CO2. […]” for “CO2.”

[17] = system: NCI-N87; assay: MECP in cancer cell line; details: Homo sapiens
Experimental: as §2, with “CO2. […]” for “CO2.”

[18] = read-out: Min. Effective conc. for Polyploidy (≥5%)

Row | SMILES | minimal effective concentration [1, 18] [µM] | minimal effective concentration ([1]; read-out: Mitotic Arrest (≥5%)) [µM] | IC50 [1] [nM] | minimal effective concentration [2] [µM] | minimal effective concentration [3] [µM] | minimal effective concentration [4] [µM] | minimal effective concentration [5] [µM] | minimal effective concentration [6] [µM] | minimal effective concentration [7] [µM] | EC50 [8] [nM] | EC50 [9] [nM] | EC50 [10] [nM] | EC50 [11] [nM] | EC50 [12] [nM] | EC50 [13] [nM] | EC50 [14] [nM] | EC50 [15] [nM] | minimal effective concentration [16] [µM] | minimal effective concentration [17] [µM] | also measured
1 | COC(=O)c1ccc2nccc(Oc3cc(NC(C)=O)cc(OC)c3)c2c1 [Compound 42, methyl 4-(3-acetamido-5-methoxyphenoxy)quinoline-6-carboxylate] | 0.001 to 1 | 0.001 to 1 | 1 to 1000 | 0.001 to 1 | 0.001 to 1 | 0.001 to 1 | 0.001 to 1 | 0.001 to 1 | 0.001 to 1 | 1 to 1000 | 1 to 1000 | 1 to 1000 | 1 to 1000 | 1 to 1000 | 1 to 1000 | 1 to 1000 | 1 to 1000 | 0.001 to 1 | 0.001 to 1 | 
2 | COc1cc(Oc2ccnc3ccccc23)cc(-n2cccn2)c1 [Compound 12, 4-(3-methoxy-5-(1H-pyrazol-1-yl)phenoxy)quinoline] | 0.001 to 1 | 0.001 to 1 | 1 to 1000 | 0.001 to 1 | 0.001 to 1 | 0.001 to 1 | 0.001 to 1 | 0.001 to 1 | 0.001 to 1 | 1 to 1000 | 1 to 1000 | 1 to 1000 | 1 to 1000 | 1 to 1000 | 1 to 1000 | 1 to 1000 | 1 to 1000 | 0.001 to 1 | 0.001 to 1 | 
3 | COc1cc(NC(C)=O)cc(Oc2ccnc3cc(OC)c(OC)cc23)c1 [Compound 27, N-(3-((6,7-dimethoxyquinolin-4-yl)oxy)-5-methoxyphenyl)acetamide] | 0.001 to 1 | 0.001 to 1 | 1 to 1000 | 0.001 to 1 | 0.001 to 1 | 0.001 to 1 | 0.001 to 1 | 0.001 to 1 | 0.001 to 1 | 1 to 1000 | 1 to 1000 | 1 to 1000 | 1 to 1000 | 1 to 1000 | 1 to 1000 | 1 to 1000 | 1 to 1000 | 0.001 to 1 | 0.001 to 1 | Min. Effective conc. for Polyploidy (≥5%) [1]: B (a value greater than 1.00 μM and less than or equal to 10.0 μM); Mitotic Arrest (≥5%) [1]: B (a value greater than 1.00 μM and less than or equal to 10.0 μM); Proliferative arrest (>50%) [1]: B (a value greater than 1.00 μM and less than or equal to 10.0 μM); Along with Cell Death ([1]; listed as 23): B (a value greater than 1.00 μM and less than or equal to 10.0 μM)
4 | COc1cc(Oc2ncnc3ccsc23)cc(-n2cccn2)c1 [Compound 38, 4-(3-methoxy-5-(1H-pyrazol-1-yl)phenoxy)thieno[3,2-d]pyrimidine] | 0.001 to 1 | 0.001 to 1 | 1 to 1000 | 0.001 to 1 | 0.001 to 1 | 0.001 to 1 | 0.001 to 1 | 0.001 to 1 | 0.001 to 1 | 1 to 1000 | 1 to 1000 | 1 to 1000 | 1 to 1000 | 1 to 1000 | 1 to 1000 | 1 to 1000 | 1 to 1000 | 0.001 to 1 | 0.001 to 1 | 
5 | CNC(=O)c1cc(OC)cc(Oc2ccnc3ccc(C(F)(F)F)cc23)c1 [Compound 70, 3-Methoxy-N-methyl-5-((6-(trifluoromethyl)quinolin-4-yl)oxy) benzamide] | 1 to 10 | 1 to 10 | 1000 to 10000 |  |  |  |  |  |  |  |  |  |  |  |  |  |  |  |  | 
6 | COc1cc(NC(C)=O)cc(Oc2ccnc3ccc(Cl)cc23)c1 [Compound 50, N-(3-((6-chloroquinolin-4-yl)oxy)-5-methoxyphenyl) acetamide] | 0.001 to 1 | 0.001 to 1 | 1 to 1000 |  |  |  |  |  |  |  |  |  |  |  |  |  |  |  |  | 
7 | COc1cc(Oc2ncnc3cc(OC)c(OC)cc23)cc(-n2cnc(C)c2)c1 [Compound 75, 4-(3-Methoxy-5(4-methyl-H-imidazol-1-yl)phenoxy)-6,7-dimethoxyquinazoline] | 0.001 to 1 | 0.001 to 1 | 1 to 1000 |  |  |  |  |  |  |  |  |  |  |  |  |  |  |  |  | 
8 | COc1cc(NC(C)=O)cc(Oc2ccnc3ccc(C(=O)O)cc23)c1 [Compound 52, 4-(3-Acetamido-5-methoxyphenoxy) quinoline-6-carboxylic acid] | 10 to 30 | 1 to 10 | 10000 to 30000 |  |  |  |  |  |  |  |  |  |  |  |  |  |  |  |  | 
9 | COc1cc(Oc2ncnc3cc(OC)c(OC)cc23)cc(-n2cccn2)c1 [Compound 74, 4-(3-methoxy-5-(1H-pyrazol-1-yl)phenoxy)-6,7-dimethoxyquinazoline] | 10 to 30 | 10 to 30 | 10000 to 30000 |  |  |  |  |  |  |  |  |  |  |  |  |  |  |  |  | 
10 | COc1cc2nccc(Oc3cc(OC4CCOC4)cc(OC4CCOC4)c3)c2cc1C(N)=O (stereo not shown) [Compound 82, 4-(3,5-bis((tetrahydrofuran-3-yl)oxy)phenoxy)-7-methoxyquinoline-6-carbonamide] | 1 to 10 | 1 to 10 |  |  |  |  |  |  |  |  |  |  |  |  |  |  |  |  |  | 

From US20240239806A1, “COMPOUNDS, COMPOSITIONS AND METHODS OF TREATING DISORDERS” (Chengdu Anticancer Bioscience, Ltd., priority 2021, published 2024)
